Measurements taken from PubChem BioAssay (NCI).
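Each compound was tested at five concentrations against cells in 96-well plates for 48 hours. GI50 = concentration required for 50% inhibition of growth. TGI: total growth inhibition.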

Tests used:
Experiment in all cases: NCI tumour cell line growth inhibition, 48 h
SN12C renal = test system: SN12C renal
NCI-H522 lung = test system: NCI-H522 lung
SK-MEL-28 melanoma = test system: SK-MEL-28 melanoma
A549 NSCLC = test system: A549 NSCLC
TK-10 renal = test system: TK-10 renal
OVCAR-5 ovarian = test system: OVCAR-5 ovarian
HCC-2998 colon = test system: HCC-2998 colon
CAKI-1 renal = test system: CAKI-1 renal
UACC-62 melanoma = test system: UACC-62 melanoma
ACHN renal = test system: ACHN renal

Structure (SMILES)	GI50 (SN12C renal) [µM]	TGI (SN12C renal) [µM]	GI50 (NCI-H522 lung) [µM]	TGI (NCI-H522 lung) [µM]	GI50 (SK-MEL-28 melanoma) [µM]	TGI (SK-MEL-28 melanoma) [µM]	GI50 (A549 NSCLC) [µM]	TGI (A549 NSCLC) [µM]	GI50 (TK-10 renal) [µM]	TGI (TK-10 renal) [µM]	GI50 (OVCAR-5 ovarian) [µM]	TGI (OVCAR-5 ovarian) [µM]	GI50 (HCC-2998 colon) [µM]	TGI (HCC-2998 colon) [µM]	GI50 (CAKI-1 renal) [µM]	TGI (CAKI-1 renal) [µM]	GI50 (UACC-62 melanoma) [µM]	TGI (UACC-62 melanoma) [µM]	GI50 (ACHN renal) [µM]	TGI (ACHN renal) [µM]
COc1cc(/C=C2\CCC/C(=C\c3ccc(OCC4CO4)c(OC)c3)C2=O)ccc1OCC1CO1 (stereo not given)	2.84	8.71	2.47	6	1.81	3.43	2.14	5.09	4.04	17.6	2.87	10.6	2.25	4.75	3.3	> 100	2.02	4.8		
CCC[CH2][Sn]1([CH2]CCC)[O]CC(COc2c(Cl)cc(Cl)cc2Cl)[O]1 (stereo not given)	1.75	3.27			1.39	2.82	5.15	17.7			2.02	3.46	1.51	2.95	0.511	1.65	1.48	2.86	1.77	3.17
COc1cc(OC)c2sc(-c3ccc(-n4cncc4-c4cc(OC)c(OC)c(OC)c4)cc3)nc2c1	> 100	> 100	3.27	> 100			6.16	> 100	9.4	> 100	> 100	> 100	> 100	> 100			4.14	> 100	6.67	> 100
NC(=S)N/N=C1\CCCC\C1=C/c1ccccc1		> 100		37.9		> 100		> 100		> 100		70.4		> 100				> 100		> 100
Cc1ccc2[c](c1)[Sn]([c]1ccccc1)([c]1ccccc1)[c]1cc(C)ccc1N2C	> 100	> 100	21.8	> 100	64.5	> 100	> 100	> 100	> 100	> 100	70.3	> 100	26.4	> 100			20.9	> 100	66.8	> 100
CCc1nc(Cl)c(Cl)c(Cl)n1		> 100				> 100		> 100		> 100		> 100		> 100				> 100		> 100
C[P+](C)(C)c1ccccc1		> 100				> 100		> 100		> 100		> 100		> 100		> 100		> 100		> 100
O=C1/C(=C/N2N=C(c3ccc4ccccc4c3)CC2c2ccccc2O)SC(=S)N1c1cccnc1 (stereo not given)	2.22	> 100					0.704	> 100	1.84	> 100	6.19	> 100	3.06	> 100	1.03	> 100	4.06	> 100	1.65	> 100
CCc1cccc(C)c1NC(=O)CC1C(=O)Nc2ccccc2S1=O (stereo not given)		> 100		> 100		> 100		> 100		> 100		> 100		> 100		> 100				> 100
NC(=O)CNc1ccc([As]=[As]c2ccc(NCC(N)=O)cc2)cc1 (stereo not given)					4.01	17.6	23.5	> 100			4.42	20.2	13.9	29.7	2.41	17.9	4.2	18.2	11.6	30.3
CSc1ccc2c(cc1=O)[C@@H](NC(=O)c1cc(O)c(O)c(O)c1)CCc1cc(O)c(O)c(O)c1-2		34.5		44.4		94.8		92		> 100		31.3		> 100				36.8		> 100
CC(=O)[CH-]C(=O)c1ccccc1.CC(=O)[CH-]C(=O)c1ccccc1.O=S(=O)([O-])c1cc([O-])c2c([O-])cc(S(=O)(=O)[O-])cc2c1.[Na+].[Ti+4]	> 100	> 100	70.7	> 100	> 100	> 100	> 100	> 100			> 100	> 100	> 100	> 100	> 100	> 100	> 100	> 100	> 100	> 100
